Source: patent publication US10561638B2, “Methods for treating dependence” (Biotie Therapies, Inc., priority 2007, dated 2020)
Entries after “also recorded” stand apart in the source; their conditions may differ.

Assays:
CD-1 (ICR) mice = test: Locomotor activity in mice, intraperitoneal; assay type: in vivo; settings: i.p.; nepicastat 3-100, SKF-102698 30 and 100, cocaine 30 mg/kg
Source text: Adult male CD-1 (ICR) mice (30-40 g on study day) were housed in groups of eight under a normal light/dark cycle with lights on between 0900 hr and 2100 hr. Food and water were allowed ad libitum. All animals were naive to drug treatment and behavioral testing. Each animal was only used once.
Locomotor activity was monitored in an automated 14 station activity monitoring system (San Diego Instrument Co.). Each station consisted of a clear perspex cage (25 cm×45 cm×20 cm; w×1×h) placed within a metal frame containing 3 photoemmitors and 3 photodetectors spaced equally along the length of the wall. The bottom of each cage was lightly covered in clean cedar bedding.
The mice were placed in the testing room at least 1 hr prior to testing. The mice were placed individually into one of the activity cages and allowed to explore for 30 min. […] Following a 60 minute pre-treatment period, motor activity was monitored for 180 minutes. Activity counts and ambulations (defined as a break of 2 consecutive photobeams) for each animal were recorded every 30 minutes.
A repeated measures two-way analysis of variance (ANOVA) was performed using the overall ranked data (nonparametric technique) to test for the overall effects of treatment, time interval and treatment by time interval interaction. […]

[1] = in vivo
Protocol: The pharmacokinetics of nepicastat after a single 40 mg dose was compared in men and women.

alpha1 receptors = test: Radioligand filtration binding (Example 19)
Protocol: (§1) The affinity of nepicastat was determined in the bindings assays outlined using standard radioligand filtration binding methods were used. Competition binding data were analyzed by iterative curve fitting to a four parameter logistic equation. Hill coefficients and IC50 were obtained directly. pKi (−log of Ki) of competing ligands were calculated from IC50 values using the Cheng-Prusoff equation.

[2] = molecular target: all other receptors examined; test: Radioligand filtration binding (Example 19)
Protocol: as §1

normotensive Wistar rats = test: 7 day radio-telemetry study in normotensive Wistar rats
Protocol: Male Crl:COBS(WI)BR rats of 15 weeks old were used.
Both nepicastat and hydralazine were prepared in water with traces of Tween 80. All doses were given orally to the rat in 10 ml/kg and were expressed as free base equivalents.
All values were expressed as means±SEM. Statistical significance was defined as a p level of less than 0.05.
Body weights were recorded daily.

[3] = Tolerability in patients with chronic heart failure; assay type: in vivo, human
Protocol: The dose at which the frequency of significant adverse events increased was 160 mg.

[4] = tested on: plasma dopamine/norepinephrine ratio, urinary dopamine; test: Plasma and urinary catecholamines in normal volunteers; assay type: in vivo, human
Protocol: Nepicastat reduces the conversion of dopamine to norepinephrine. Basic tests for nepicastat activity measure the levels of plasma or urinary dopamine or the ratio of dopamine to norepinephrine. Nepicastat treatment can increase plasma or urinary levels of dopamine or increase the dopamine/norepinephrine ratio in plasma or urine.
Shown in FIG. 5, are the levels in urinary dopamine levels in normal volunteers after 24 hour treatment with nepicastat.
Urinary dopamine levels increased after 10 days of dosing with both 40 mg and 200 mg of nepicastat.

[5] = tested on: plasma dopamine/norepinephrine; test: Plasma dopamine/norepinephrine in congestive heart failure patients; assay type: in vivo, human
Protocol: In studies of congestive heart failure patients, changes in plasma dopamine levels, norepinephrine levels, and dopamine/norepinephrine ratios after treatment with nepicastat in a 10 day study were determined.
In studies of congestive heart failure patients, plasma dopamine levels, norepinephrine levels, and dopamine/norepinephrine ratios and changes of the levels and the ratios after treatment with nepicastat in a 30 day study were determined.

acetyl CoA synthetase = test: Enzyme selectivity assay; assay type: biochemical
Protocol: The activity of nepicastat at twelve selected enzymes and receptors was determined using established assays. Binding data were analyzed by iterative curve-fitting to a four parameter logistic equation. Ki values were calculated from IC50 values using the Cheng-Prusoff equation. Enzyme inhibitory activity was expressed as IC50 (concentration required to produce 50% inhibition of enzyme activity).
The activity of nepicastat at eleven different enzymes was determined using established assays. The affinity of nepicastat for thirteen selected receptors was determined by radioligand binding assays using standard filtration techniques and membrane preparations. Binding data were analyzed by iterative curve fitting to a four parameter logistic equation. Ki values were calculated using the Cheng-Prusoff equation.

SMILES: Fc1cc(F)cc(Cn2cc[nH]c2=S)c1 [SKF-102698, reference compound]
- total activity counts and ambulations vs vehicle (CD-1 (ICR) mice): no significant differences; also recorded: no significant effects

SMILES: Cl.NCc1c[nH]c(=S)n1[C@H]1CCc2c(F)cc(F)cc2C1 [nepicastat, (S)-5-Aminomethyl-1-(5,7-difluoro-1,2,3,4-tetrahydronaphth-2-yl)-2,3-dihydro-2-thioxo-1H-imidazole hydrochloride]
- AUC, greater in women than in men ([1]; both, human, 40 mg): approximately 43%
- Cmax, greater in women than in men ([1]; both, human, 40 mg): approximately 23%
- Tmax for the radioactivity in plasma ([1]; human): 1 to 2 h
- terminal T1/2 for total radioactivity in plasma ([1]; human): ~100 h
- Cmax or AUC, fast vs slow acetylator phenotype [1]: No significant differences
- T½, women vs men [1]: longer in women than in men
- accumulation with multiple dosing [1]: no significant accumulation
- pKi (alpha1 receptors): 6.9-6.7
- pKi [2]: < 6.2
- peak decrease in blood pressure (normotensive Wistar rats; 30 mg/kg/d, day 2): −10 mmHg
- peak antihypertensive response on day 1 (normotensive Wistar rats; 100 mg/kg, 22 hr after dosing): −11 mmHg
- patients with symptomatic orthostatic hypotension ([3]; 160 mg): 6 of the 8 patients
- patients who developed a rash ([3]; 160 mg for 8 days or longer): Four of 8 patients
- tolerability ([3]; daily doses of 40, 80, 120 mg for 10 days): generally well tolerated
- dose at which the frequency of significant adverse events increased ([3]; human, in vivo): 160 mg
- urinary dopamine levels ([4]; 40 mg and 200 mg, after 10 days of dosing): increased
- mean supine plasma dopamine/norepinephrine ratio vs placebo ([4]; 200 mg): significant increase
- dopamine/norepinephrine levels ([5]; 10 day study): increased dopamine/norepinephrine levels
- dopamine/norepinephrine levels ([5]; 30 day study): increased dopamine/norepinephrine levels
- IC50 (acetyl CoA synthetase): > 10 µM
